Source: article PMC3502156, “Anti-plasmodial action of de novo-designed, cationic, lysine-branched, amphipathic, helical peptides” (Malaria Journal, 2012)
Read-outs that look alike come from different tables or passages of the source. Starred links: 1 amine or outer side, 2 acyl side, 3 side chain; linkers in the order of their positions; H or OH if unused. Positions of bridges follow the written chain, without caps; N, C: chain ends. Non-standard residues stand in square brackets, D forms with d. Residues, ends and D or L forms follow the SMILES beside them. Chains are numbered I, II in the order given. X1 = O=C(/C(=C/c1ccccc1)N[*:1])[*:2]; X2 = O=C(C(=Cc1ccccc1)N[*:1])[*:2]

Experiments:
[1] = test system: P. falciparum 3D7 (chloroquine-sensitive); assay: microbe, parasite or virus in culture; type: cell-based, Plasmodium falciparum
[2] = test system: uninfected erythrocytes (URBC); assay: Haemolysis assay, uninfected red cells; type: cell-based, human; conditions: 3 h
Method: Selectivity of haemolysis by peptides for infected erythrocytes (PRBC) vs uninfected erythrocytes (URBC) was examined by incubating the test molecules with URBCs and PRBCs respectively in phosphate-buffered saline (PBS). Briefly, fresh RBCs were spin washed (1600 RPM; 5 min) three times in PBS and re-suspended in PBS at 2% haematocrit. A 100 μl suspension was added to 96-well plate containing the peptides at different concentrations. […] After incubation at 37°C for 3 hr, the samples were centrifuged and supernatant was used to determine the haemolytic activity measured in terms of haemoglobin release as monitored by […]. Triton-treated control samples were diluted 10-fold before reading absorbance. […] Percent haemolysis has been expressed with reference to 100% haemolysis value assigned to positive control (triton X 100 treated RBCs). To study haemolytic susceptibility of parasitized cells, URBCs were replaced with varying percentages (10% and 20%) of mixed stage parasitized cells. […] Haemolysis of parasitized erythrocytes was also monitored microscopically by examining the Giemsa-stained smears. Parasitaemia of ΔFd treated and untreated cultures were microscopically counted for ring, trophozoite and schizont stages respectively. Susceptibility of different stages was compared with corresponding untreated control cultures.

[3] = test system: P. falciparum 3D7 (chloroquine-sensitive); assay: microbe, parasite or virus in culture; type: cell-based, Plasmodium falciparum; conditions: 3D7 (chloroquine-sensitive, 48 h)
Method: (§1) Chloroquine-sensitive (3D7) and CQ-resistant (Dd2 and INDO) strains of P. falciparum were maintained in continuous culture according to the method of Trager and Jensen with minor modifications. Cultures were maintained in fresh group O^+ve human erythrocytes suspended at 4% haematocrit in complete medium {16.2 g/L RPMI 1640 containing 25 mM HEPES, 11.11 mM glucose (Gibco), 0.2% sodium bicarbonate (Sigma), 0.5% Albumax I (Gibco), 45 μg/litre hypoxanthine (Sigma) and 50 μg/litre gentamicin (Gibco)} and incubated at 37°C under a gas mixture 5% O2, 5% CO2, and 90% N2. Every day, the spent medium was replaced by fresh complete medium to propagate the culture. […] Parasitaemia was monitored by microscopic examination of Giemsa-stained blood smears. Synchronized ring stage parasite was obtained by 5% sorbitol treatment. Trophozoites and schizont-stage parasites were enriched by using Percoll gradient.
(§2) Stock solutions of peptides and CQ were prepared in water (milli-Q grade) while artemisinin stock solution was in dimethyl sulphoxide (DMSO). All stocks were then diluted with culture medium to achieve the required drug concentrations. The concentration of peptide solution in water was based on A280 [ϵ (M^-1 cm^-1) ΔF (didehydrophenylalanine) 19,000, W (Tryptophan) 5,000)]. Thus ϵ280 were 62,000, 124,000, 124,000 and 248,000 for ΔFm, (ΔFm)2, ΔFd and ΔFq respectively. The concentration of FITC-peptides was based on A495 [ϵ(M^-1 cm^-1) FITC 77,000 for (ΔFm)2 with one FITC and 154,000 for ΔFd with two FITC per molecule]. Drugs and peptides solutions were placed in 96-well flat bottom tissue culture grade plates (Corning).
(§3) For drug screening, SYBR green I based fluorescence assay was used as described previously by Smilkstein et al.[30]. Sorbitol synchronized ring stage parasites (haematocrit: 2%, parasitaemia: 1%, 100 μl) under normal culture conditions were incubated in the absence or presence of increasing concentrations of peptides in water. CQ and artemisinin were used as positive controls. […] After 48 hr of incubation 100 μl of SYBR Green I buffer [0.2 μl of 10,000 X SYBR Green I (Invitrogen) per ml of lysis buffer {Tris (20 mM; pH 7.5), EDTA (5 mM), saponin (0.008%; wt/vol), and Triton X-100 (0.08%; vol/vol)}] was added to each well, mixed twice gently with multi-channel pipette and incubated in dark at 37 °C for 1 h. Fluorescence was measured with a Victor fluorescence multi-well plate reader (Perkin Elmer) with excitation and emission wavelength centred at 485 and 530 nm, respectively. Fluorescence counts for CQ (0.1 μM for 3D7, 1 μM for INDO) were subtracted from counts in each well. The fluorescence counts were plotted against the drug concentration and IC50 (the 50% inhibitory concentration) was determined by analysis of dose–response curves. Results of the above mentioned fluorescence-based assay were validated microscopically by examination of Giemsa-stained smears of peptide-treated parasite cultures. Statistical significance of relative potencies of peptides was determined by student’s T test.

[4] = test system: P. falciparum Dd2 (CQ-resistant); assay: microbe, parasite or virus in culture; type: cell-based, Plasmodium falciparum; conditions: for Resistance index IC50 Dd2/ IC50 3D7: IC50 CQ resistant strain/ IC50 CQ sensitive strain
Method: as §1, §2, §3

Compound	increment in potency at 96 hr (two cycles) vs 48 hr (one cycle) ([1]; P. falciparum 3D7, SYBR Green assay)	HC50 URBC [2]	Hemolytic Selectivity index (HC50 URBC/ IC50 Pf 3D7) [2]	IC50 [3]	IC50 ([4]; Dd2 (CQ-resistant, 48 h))	Resistance index IC50 Dd2/ IC50 3D7 [4]	IC50 ([1]; Plasmodium falciparum, 3D7, 48 h, read-out: IC50 P. falciparum 3D7)	IC50 ([4]; Plasmodium falciparum, DD2, 48 h, read-out: IC50 P. falciparum Dd2)
CC(=O)NCC(=O)NC(=Cc1ccccc1)C(=O)N[C@@H](CCCNC(=N)N)C(=O)N[C@@H](CCCCN)C(=O)NC(=Cc1ccccc1)C(=O)N[C@@H](Cc1c[nH]cn1)C(=O)N[C@@H](CCCCN)C(=O)NC(=Cc1ccccc1)C(=O)N[C@@H](Cc1c[nH]c2ccccc12)C(=O)N[C@@H](C)C(=O)N[C@@H](C)C(=O)NCC(=O)NC(=Cc1ccccc1)C(=O)N[C@@H](CCCNC(=N)N)C(=O)N[C@@H](CCCCN)C(=O)NC(=Cc1ccccc1)C(=O)N[C@@H](Cc1c[nH]cn1)C(=O)N[C@@H](CCCCN)C(=O)NC(=Cc1ccccc1)C(=O)N[C@@H](Cc1c[nH]c2ccccc12)C(=O)N[C@@H](C)C(N)=O [(ΔFm)2] (Ac-G[X2]RK[X2]HK[X2]WAAG[X2]RK[X2]HK[X2]WA-NH2)	1.5 fold	> 50 µM	> 20	2400 ± 150 nM	2500 ± 130 nM	1.04	–	–
CCN(CC)CCCC(C)Nc1ccnc2cc(Cl)ccc12 (centres unmarked) [Chloroquine, reference compound]	–	–	–	–	–	4	40 nM	160 nM
CC(=O)NCC(=O)N[C@@H](Cc1ccccc1)C(=O)N[C@@H](CCCNC(=N)N)C(=O)N[C@@H](CCCCN)C(=O)N[C@@H](Cc1ccccc1)C(=O)N[C@@H](Cc1c[nH]cn1)C(=O)N[C@@H](CCCCN)C(=O)N[C@@H](Cc1ccccc1)C(=O)N[C@@H](Cc1c[nH]c2ccccc12)C(=O)N[C@@H](C)C(=O)NCCCC[C@H](NC(=O)[C@H](C)NC(=O)[C@H](Cc1c[nH]c2ccccc12)NC(=O)[C@H](Cc1ccccc1)NC(=O)[C@H](CCCCN)NC(=O)[C@H](Cc1c[nH]cn1)NC(=O)[C@H](Cc1ccccc1)NC(=O)[C@H](CCCCN)NC(=O)[C@H](CCCNC(=N)N)NC(=O)[C@H](Cc1ccccc1)NC(=O)CNC(C)=O)C(N)=O [Fd] (I: Ac-GFRKFHKFWAK-NH2 / II: Ac-GFRKFHKFWA; amide I:11-II:C; N-terminus and C-terminus assumed)	–	> 50 µM	> 33	1500 ± 80 nM	–	–	–	–
CC(=O)NCC(=O)N[C@@H](Cc1ccccc1)C(=O)N[C@@H](CCCNC(=N)N)C(=O)N[C@@H](CCCCN)C(=O)N[C@@H](Cc1ccccc1)C(=O)N[C@@H](Cc1c[nH]cn1)C(=O)N[C@@H](CCCCN)C(=O)N[C@@H](Cc1ccccc1)C(=O)N[C@@H](Cc1c[nH]c2ccccc12)C(=O)N[C@@H](C)C(N)=O [Fm] (Ac-GFRKFHKFWA-NH2)	–	>100 µM	–	> 100000 nM	> 100000 nM	–	–	–
C[C@H](NC(=O)[C@H](C)NC(=O)[C@H](CCCCN)NC(=O)[C@H](Cc1c[nH]cn1)NC(=O)[C@@H]1CCCN1C(=O)[C@H](CCC(=O)O)NC(=O)[C@@H](N)CCC(=O)O)C(=O)N[C@@H](CO)C(=O)N[C@@H](C)C(=O)N[C@@H](CCC(=O)O)C(=O)NCC(=O)N[C@@H](CCCCN)C(=O)N[C@@H](CCCCN)C(=O)O [Prochitinase, reference compound] (H-EEPHKAASAEGKK-OH)	–	> 40 µM	–	> 40000 nM	–	–	–	–
CC(=O)NCC(=O)NC(=Cc1ccccc1)C(=O)N[C@@H](CCCNC(=N)N)C(=O)N[C@@H](CCCCN)C(=O)NC(=Cc1ccccc1)C(=O)N[C@@H](Cc1c[nH]cn1)C(=O)N[C@@H](CCCCN)C(=O)NC(=Cc1ccccc1)C(=O)N[C@@H](Cc1c[nH]c2ccccc12)C(=O)N[C@@H](C)C(N)=O [ΔFm] (Ac-G[X2]RK[X2]HK[X2]WA-NH2)	–	>100 µM	–	> 100000 nM	> 100000 nM	–	–	–
I: Ac-G[X1]RK[X1]HK[X1]WAKK-NH2 / II: Ac-G[X1]RK[X1]HK[X1]WAK / III: Ac-G[X1]RK[X1]HK[X1]WA / IV: Ac-G[X1]RK[X1]HK[X1]WA (amide I:11-IV:C, I:12-II:C, II:11-III:C; N-terminus and C-terminus assumed) [ΔFq]	–	2.5 ± 0.13 µM	10	250 ± 20 nM	–	–	–	–
